Results reported in PubChem BioAssay (NCI).
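How tested: cells in 96-well plates exposed to compound for 48 hours at five concentrations. Abbreviation: GI50, concentration required for 50% inhibition of growth. The concentration for full growth arrest is given as TGI.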

Tests used:
Experiment in all cases: inhibition of tumour cell growth, NCI panel, 48 h
[1] = tested on: HOP-62 NSCLC
[2] = tested on: TK-10 renal
[3] = tested on: MDA-MB-231 breast
[4] = tested on: HL-60(TB) leukemia
[5] = tested on: BT-549 breast
[6] = tested on: HCC-2998 colon
[7] = tested on: SK-OV-3 ovarian
[8] = tested on: NCI-H522 lung

Row | SMILES | GI50 [1] [µM] | TGI [1] [µM] | GI50 [2] [µM] | TGI [2] [µM] | GI50 [3] [µM] | TGI [3] [µM] | GI50 [4] [µM] | TGI [4] [µM] | GI50 [5] [µM] | TGI [5] [µM] | GI50 [6] [µM] | TGI [6] [µM] | GI50 [7] [µM] | TGI [7] [µM] | GI50 [8] [µM] | TGI [8] [µM]
1 | C=C1C[C@H](O)[C@H](Br)C(C)(C)[C@@]12CCC(C)=C(Cl)C2 | 0.377 | 4.92 | 0.373 | 2.89 | 0.345 | 2.33 | 0.206 | 0.761 | 0.248 | 2.82 | 0.568 | 14 | 0.297 | 6.41 | 0.416 | 3.46
2 | Cc1ccc(-c2nc(N3CCNCC3)c3oc(-c4ccc(C)cc4)nc3n2)cc1 | 10.1 | > 100 | 5.43 | 14 | 1.77 | 3.45 | 1.17 | 3.26 | 5.39 | 11.2 | 3.61 |  | > 43.2 | > 59.2 | 14.2 | 36.1
3 | Cc1nnc2ccnn2c1C | > 100 | > 100 | > 100 | > 100 | > 100 | > 100 | > 100 | > 100 | > 100 | > 100 | 18.1 | 33.1 | > 100 | > 100 | 66.3 | > 100
4 | OC(c1cc(C(F)(F)F)nc2c(C(F)(F)F)cccc12)C1CCCCN1 (centres undefined) | 1.84 | 5.13 | 1.8 | 3.43 | 1.78 | 3.45 | 2.46 | 4.6 | 3.24 | 8.67 | 1.46 | 3.22 | 1.95 | 4.32 | 1.65 | 3.2
5 | CC(C)(C)[Si](C)(C)OC1[C@@H](O[Si](C)(C)C(C)(C)C)[C@@H](CNC(=O)NC(=O)C(F)(F)F)O[C@H]1n1cnc2c(NC(=O)Nc3ccccc3)ncnc21 (some centres undefined) | 7.41 | 14.1 | 9.77 | 17.2 | 6.16 | 14.2 | 9.3 | 26.4 | 6.81 | 13.4 | 4.28 | 10.6 | 8.74 | 15.7 | 9.14 | 16.6
6 | Cc1ccc(NC2=C3CCCCC3OC2=O)cc1 (centres undefined) | > 100 | > 100 | > 100 | > 100 | 35.2 | > 100 | 55.6 | > 100 | > 100 | > 100 | > 100 | > 100 | > 100 | > 100 | 29 | > 100
7 | CC(=O)Nc1cc2ccc(=O)oc2cc1Cl |  | > 100 |  |  |  | > 100 |  | > 100 |  | > 100 |  | > 100 |  |  |  | > 100
8 | CN1CCN(c2ccc(Nc3ncc(Cl)c(NC[C@@H]4CCCO4)n3)cc2)CC1 | 0.705 | 4.61 | 1.75 | 8.39 | 1.62 | 8.29 | 1.48 | 4.76 | 2.24 | 6.94 | 1.65 | 37.5 | 2.63 | 63.8 | 1.52 | 10.9
9 | O=C1c2c(F)c(F)c(F)c(F)c2C(=O)N1c1ccc(F)cc1F | 15.2 | 31.4 | 13.7 | > 51 | 5.53 | 19.5 | 0.403 | 0.891 | 11.9 | 28 | 11.2 | 23.2 | 20.7 | 50.2 | 6.58 | > 25
10 | CC(C)[C@@H]1NC(=O)[C@]2(C)CSC(=N2)c2ccnc(c2)CNC(=O)C[C@@H](/C=C/CCS)OC1=O | 0.0525 |  | 0.178 | 1.64 | 0.472 | > 100 | 0.513 | > 100 | 0.718 | > 100 | 0.173 | 0.869 | 0.0354 | 0.197 | 0.249 | 5.14
11 | CN(C)CC(O)c1ccc(/C=C/c2ccc(Cl)cc2)cc1 (centres undefined) | 3.13 | 14 |  |  | 1.7 | 3.14 | 1.11 | 2.7 |  |  | 1.54 | 2.97 | 13 | 26.5 |  | 
12 | COC(=O)[C@]12CC[C@@H](C)[C@H](C)[C@@H]1C1=CC[C@@H]3[C@@]4(C)C[C@@H](O)[C@H](O)[C@@](C)(CO)[C@@H]4[C@H](O)C[C@@]3(C)[C@]1(C)CC2 | 20.3 | 42.7 | 16.8 | 31.5 | 13 | 29.8 | 9.1 | 30.3 | 12.6 | 26.4 | 14.6 | 31.2 | 19.4 | 33.5 | 20.9 | 43.3
13 | C/C=C/[C@@H]1O[C@@H]2COC(=O)C2=C[C@@H]1O | 23.5 | 43 | 6.43 | 20.5 | 19.6 | 39.7 | 10.6 | > 100 | 3.59 | 15.2 | 24.1 | 48.8 | 25.9 | > 58.4 | 3.95 | > 29.1
14 | O=C1CSC(=S)N1/N=C/c1ccc(Cl)c([N+](=O)[O-])c1 |  | 86.3 |  | > 100 |  | 48 |  | 61 |  | 37.9 |  | 27.5 |  | > 100 |  | 36.8
15 | CC(=O)OC1(C)N=NC2(CCCCC2)O1 (centres undefined) |  | > 100 |  | > 100 |  | > 100 |  | > 100 |  | > 100 |  |  |  | > 100 |  | > 100
16 | COC1=CC(=O)C(C2(OC(C)C)OC(=O)C(Cl)=C2Cl)=CC1=O (centres undefined) |  | > 100 |  | > 100 |  | > 100 |  | 1.55 |  |  |  | > 100 |  | > 100 |  | 96
17 | C#Cc1cccc(Nc2nc3cc([N+](=O)[O-])ccc3nc2Nc2ccc(O)cc2)c1 | 1.67 | 3.35 |  |  | 1.8 | 3.8 | 2.42 | 5.63 | 1.71 | 3.7 | 1.75 | 3.45 | 2.34 | 5.97 |  | 
